Values quoted from earlier work as cited in patent US20250041228A1, “ORAL FORMULATION OF A PYRIDINONE DERIVATE AND USE THEREOF IN PROPHYLAXIS AND/OR TREATMENT OF INTESTINAL FIBROSIS” (Dr. Falk Pharma GmbH, priority 2021, published 2025).

Target: T1, transglutaminase 2 (Homo sapiens, UniProt P21980)
T1 sequence (P21980 1-687): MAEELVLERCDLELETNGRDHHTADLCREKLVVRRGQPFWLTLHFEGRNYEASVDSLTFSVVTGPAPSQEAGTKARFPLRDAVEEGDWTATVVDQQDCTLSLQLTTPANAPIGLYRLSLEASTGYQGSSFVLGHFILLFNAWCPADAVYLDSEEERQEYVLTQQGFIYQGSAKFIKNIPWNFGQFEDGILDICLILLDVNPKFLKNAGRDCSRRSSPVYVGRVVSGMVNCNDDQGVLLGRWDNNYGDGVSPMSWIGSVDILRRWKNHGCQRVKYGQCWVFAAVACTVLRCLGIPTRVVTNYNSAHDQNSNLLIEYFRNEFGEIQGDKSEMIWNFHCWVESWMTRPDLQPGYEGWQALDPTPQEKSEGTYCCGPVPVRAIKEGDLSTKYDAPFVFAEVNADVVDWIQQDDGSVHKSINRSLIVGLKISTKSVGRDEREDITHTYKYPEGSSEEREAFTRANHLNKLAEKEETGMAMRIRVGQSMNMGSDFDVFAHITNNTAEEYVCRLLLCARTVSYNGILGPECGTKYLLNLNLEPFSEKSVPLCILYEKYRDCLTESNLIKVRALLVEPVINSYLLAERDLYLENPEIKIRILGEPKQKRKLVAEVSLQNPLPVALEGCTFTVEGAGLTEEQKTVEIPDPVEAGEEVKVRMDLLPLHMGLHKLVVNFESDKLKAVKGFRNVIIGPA
Settings: background statement, no data

Q: For CCC(CC)CNC(=O)Cn1cccc(NC(=O)[C@H](CC/C=C/C(=O)OC)NC(=O)c2cncn2C)c1=O [Compound 1, (S,E)-methyl-7-(1-(2-(2-ethylbutylamino)-2-oxoethyl)-2-oxo-1,2-dihydro-pyridin-3-ylamino)-6-(1-methyl-1H-imidazole-5-carboxamido)-7-oxohept-2-enoate], which “inhibitor against transglutaminase 2” value is on record?
A: effective inhibitor
